In patent US20240124466A1, “COMPOUNDS AND USE THEREOF FOR TREATMENT OF NEURODEGENERATIVE, DEGENERATIVE AND METABOLIC DISORDERS” (VOVA IDA THERAPEUTICS, INC., priority 2020, published 2024):

System: PK1 neuroblastoma cells exposed to TPrP
Experiment: cells
Details: Neuroblastoma cell, 96 h, read-out: TPrP EC50

`O=S(=O)(c1cc(-c2nnc(-c3ccccc3)[nH]2)ccc1OC(F)(F)F)N1CCOCC1` [SR-31545, 4-((5-(5-Phenyl-4H-1,2,4-triazol-3-yl)-2-(trifluoromethoxy)phenyl)sulfonyl) morpholine] and `Cc1ccc(-c2nnc(-c3ccccc3)[nH]2)cc1S(=O)(=O)N1CCC(O)CC1` [SR-32045, 1-((2-Methyl-5-(5-phenyl-4H-1,2,4-triazol-3-yl)phenyl)sulfonyl)piperidin-4-ol] cannot be ordered by EC50: > 1500 nM for the first, > 1500 nM for the second.

First: Cc1ccc(-c2nnc(-c3ccccc3)[nH]2)cc1S(=O)(=O)NCc1cccnc1 [SR-31584, 2-Methyl-5-(5-phenyl-4H-1,2,4-triazol-3-yl)-N-(pyridin-3-ylmethyl)benzene sulfonamide]
Second: Cc1ccc(-c2nnc(-c3ccccc3)[nH]2)cc1S(=O)(=O)NCc1cncnc1 [SR-33344, 2-Methyl-5-(5-phenyl-4H-1,2,4-triazol-3-yl)-N-(pyrimidin-5-ylmethyl)benzene sulfonamide]
The EC50 of the first is 7.2-fold lower: 90 nM for the first, 650 nM for the second.

Going from `Cc1ccc(-c2nnc(-c3ccccc3)[nH]2)cc1S(=O)(=O)NCCN1CCOCC1` [SR-31824, 2-Methyl-N-(2-morpholinoethyl)-5-(5-phenyl-4H-1,2,4-triazol-3-yl)benzene sulfonamide] to `Cc1ccc(-c2nnc(-c3ccccc3)[nH]2)cc1S(=O)(=O)N1CCN(CCO)CC1` [SR-32124], the EC50 falls from > 1500 nM to 15 nM.

Compared with `Cc1ccc(-c2nnc(-c3ccccc3)[nH]2)cc1C(=O)N1CCOCC1` [SR-32044, (2-Methyl-5-(5-phenyl-4H-1,2,4-triazol-3-yl)phenyl)(morpholino)methanone], `Cc1ccc(-c2nnc(-c3ccccc3)[nH]2)cc1S(=O)(=O)N1CCOCC1C` (stereo not shown) [SR-32286, 3-Methyl-4-((2-methyl-5-(5-phenyl-4H-1,2,4-triazol-3-yl)phenyl)sulfonyl) morpholine] is 14-fold lower in EC50: ~1500 nM for the first, 110 nM for the second.

Going from `Cc1ccc(-c2nnc(-c3ccccc3)[nH]2)cc1S(=O)(=O)NCc1ccccn1` [SR-32144, 2-Methyl-5-(5-phenyl-4H-1,2,4-triazol-3-yl)-N-(pyridin-2-ylmethyl)benzene sulfonamide] to `Cc1ccc(-c2nnc(-c3ccccc3)[nH]2)cc1S(=O)(=O)NC(C)(C)CO` [SR-32184, N-(1-hydroxy-2-methylpropan-2-yl)-2-methyl-5-(5-phenyl-4H-1,2,4-triazol-3-yl)benzenesulfonamide], the EC50 falls from > 1500 nM to 180 nM. The second is the more potent here.

Compared with `Cc1ccc(-c2nnc(-c3ccccc3)[nH]2)cc1S(=O)(=O)N1CCC(O)C1` (stereo not shown) [SR-32284, 1-((2-Methyl-5-(5-phenyl-4H-1,2,4-triazol-3-yl)phenyl)sulfonyl)pyrrolidin-3-ol], `Cc1ccc(-c2nnc(-c3ccccc3)[nH]2)cc1S(=O)(=O)N1CC(O)C1` [SR-32944, 1-((2-Methyl-5-(5-phenyl-4H-1,2,4-triazol-3-yl)phenyl)sulfonyl)azetidin-3-ol] is 37-fold lower in EC50: 550 nM for the first, 15 nM for the second.

`Cc1ccc(-c2nnc(-c3ccccc3)[nH]2)cc1S(=O)(=O)N1CCN(C2COC2)CC1` [SR-32324, 1-((2-Methyl-5-(5-phenyl-4H-1,2,4-triazol-3-yl)phenyl)sulfonyl)-4-(oxetan-3-yl)piperazine] and `Cc1ccc(-c2nnc(-c3ccccc3)[nH]2)cc1S(=O)(=O)N1C[C@H]2COC[C@H]2C1` [SR-32404, (3aR,6aS)-5-((2-Methyl-5-(5-phenyl-4H-1,2,4-triazol-3-yl)phenyl)sulfonyl) hexahydro-1H-furo[3,4-c]pyrrole] are within 1.5-fold of each other in EC50: 900 nM for the first, 800 nM for the second.

Going from `Cc1ccc(-c2nnc(-c3ccccc3)[nH]2)cc1S(=O)(=O)N1C2CCC1COC2` [SR-32704, 8-((2-Methyl-5-(5-phenyl-4H-1,2,4-triazol-3-yl)phenyl)sulfonyl)-3-oxa-8-azabicyclo[3.2.1]octane] to `Cc1ccc(-c2nnc(-c3ccccc3)[nH]2)cc1S(=O)(=O)N1CCOCC1CO` (stereo not shown) [SR-32945, (4-((2-Methyl-5-(5-phenyl-4H-1,2,4-triazol-3-yl)phenyl)sulfonyl)morpholin-3-yl)methanol], the EC50 falls from 800 nM to 300 nM (2.7-fold).

`Cc1ccc(-c2nnc(-c3ccccc3)[nH]2)cc1S(=O)(=O)N1CCC2(CC1)OCCO2` [SR-32705, 8-((2-Methyl-5-(5-phenyl-4H-1,2,4-triazol-3-yl)phenyl)sulfonyl)-1,4-dioxa-8-azaspiro[4.5]decane] and `Cc1ccc(-c2nnc(-c3ccccc3)[nH]2)cc1S(=O)(=O)N1CCC2(CC1)OCCCO2` [SR-32744, 9-((2-Methyl-5-(5-phenyl-4H-1,2,4-triazol-3-yl)phenyl)sulfonyl)-1,5-dioxa-9-azaspiro[5.5]undecane] cannot be ordered by EC50: > 1500 nM for the first, > 1500 nM for the second.

`Cc1ccc(-c2nnc(-c3ccccc3)[nH]2)cc1S(=O)(=O)NC1CCC2(CC1)OCCO2` [SR-32764, 2-Methyl-5-(5-phenyl-4H-1,2,4-triazol-3-yl)-N-(1,4-dioxaspiro[4.5]decan-8-yl)benzenesulfonamide] and `Cc1ccc(-c2nnc(-c3ccccc3)[nH]2)cc1S(=O)(=O)N1CCCC2(C1)OCCO2` [SR-33045, 7-((2-Methyl-5-(5-phenyl-4H-1,2,4-triazol-3-yl)phenyl)sulfonyl)-1,4-dioxa-7-azaspiro[4.5]decane] cannot be ordered by EC50: > 1500 nM for the first, > 1500 nM for the second.

`Cc1ccc(-c2nnc(-c3ccccc3)[nH]2)cc1S(=O)(=O)N1CCC(O)(c2ccccc2)CC1` [SR-32784, 1-((2-Methyl-5-(5-phenyl-4H-1,2,4-triazol-3-yl)phenyl)sulfonyl)-4-phenyl piperidin-4-ol] and `Cc1ccc(-c2nnc(-c3ccccc3)[nH]2)cc1S(=O)(=O)N1CCC(O)(c2cccnc2)CC1` [SR-32924, 1-((2-Methyl-5-(5-phenyl-4H-1,2,4-triazol-3-yl)phenyl)sulfonyl)-4-(pyridin-3-yl)piperidin-4-ol] cannot be ordered by EC50: > 1500 nM for the first, > 1500 nM for the second.

`Cc1ccc(-c2nnc(-c3ccccc3)[nH]2)cc1S(=O)(=O)N1CCC2(CCCO2)CC1` [SR-32925, 8-((2-Methyl-5-(5-phenyl-4H-1,2,4-triazol-3-yl)phenyl)sulfonyl)-1-oxa-8-azaspiro[4.5]decane] and `Cc1ccc(-c2nnc(-c3ccccc3)[nH]2)cc1S(=O)(=O)N1CCC2(CC1)OCc1ccccc12` [SR-32984, 1′-((2-Methyl-5-(5-phenyl-4H-1,2,4-triazol-3-yl)phenyl)sulfonyl)-3H-spiro[isobenzofuran-1,4′-piperidine]] cannot be ordered by EC50: > 1500 nM for the first, > 1500 nM for the second.

First: Cc1ccc(-c2nnc(-c3ccccc3)[nH]2)cc1S(=O)(=O)N1CCC(O)(Cc2ccccc2)CC1 [SR-33024, 4-Benzyl-1-((2-methyl-5-(5-phenyl-4H-1,2,4-triazol-3-yl)phenyl)sulfonyl) piperidin-4-ol]
Second: Cc1ccc(-c2nnc(-c3ccccc3)[nH]2)cc1S(=O)(=O)N1CCN(CCc2ccncc2)CC1 [SR-33364, 1-((2-Methyl-5-(5-phenyl-4H-1,2,4-triazol-3-yl)phenyl)sulfonyl)-4-(2-(pyridin-4-yl)ethyl)piperazine]
The EC50 of the first is higher: > 1500 nM for the first, 5 nM for the second.

Compared with `Cc1c(F)cc(-c2nnc(-c3ccccc3)[nH]2)cc1S(=O)(=O)N1CCN(CCO)CC1` [SR-33604, 2-(4-((3-Fluoro-2-methyl-5-(5-phenyl-4H-1,2,4-triazol-3-yl)phenyl)sulfonyl)piperazin-1-yl)ethan-1-ol], `Cc1ccc(-c2nnc(-c3ccccc3)[nH]2)cc1S(=O)(=O)N1CCC(CCO)CC1` [SR-33725, 2-(1-((2-Methyl-5-(5-phenyl-4H-1,2,4-triazol-3-yl)phenyl)sulfonyl)piperidin-4-yl)ethan-1-ol] is higher in EC50: 90 nM for the first, > 1500 nM for the second. The first is the more potent here.
